From PubChem BioAssay AID1259407 (Chemical Carcinogenesis Research Information System (CCRIS), 2018)
Activity calls are given as the source filed them. No rule for the calls is given here.

Tested on: CCRIS mutagenicity, Ames/micronucleus/aberration tests
Experiment: CCRIS mutagenicity studies

With `Oc1ccccc1` the mutagenic call (End Point: IN VITRO CHROMOSOMAL ABERRATIONS, Test System: CHO CELLS, Metabolic Activation: NONE) was “inactive; negative”, the mutagenic call (End Point: IN VITRO CHROMOSOMAL ABERRATIONS, Test System: CHO CELLS, Metabolic Activation: RAT, LIVER, S-9, AROCLOR 1254) was “active; positive” and the mutagenic call (End Point: IN VITRO CHROMOSOMAL ABERRATIONS, Test System: V79 CELLS, Metabolic Activation: NONE) was “inactive; negative; effect more pronounced at ph 8 but no significant increase”. The mutagenic call (End Point: IN VITRO MICRONUCLEUS, Test System: CHINESE HAMSTER OVARY (CHO-K5), Metabolic Activation: NONE) was “active; positive; no statistical analysis was performed”, the mutagenic call (End Point: IN VITRO MICRONUCLEUS, Test System: CHINESE HAMSTER OVARY (CHO-K5), Metabolic Activation: RAT, LIVER, S-9, PHENOBARBITAL AND BETA-NAPHTHOFLAVONE) was “active; positive” and the mutagenic call (End Point: IN VITRO MICRONUCLEUS, Test System: CHL/IU CELLS, Metabolic Activation: RAT, LIVER, S-9, PHENOBARBITAL AND 5,6-BENZOFLAVONE) was “active; positive”. For the same compound, the mutagenic call (End Point: IN VITRO MICRONUCLEUS, Test System: CHO CELLS, Metabolic Activation: RAT, LIVER, S-9, AROCLOR 1254) was “active; positive”, the mutagenic call (End Point: In vivo micronucleus, Test System: Bone marrow cells, Species: Mouse, Strain/Sex: CD1/Female, Route: Intraperitoneal) was “active; positive (highest dose only)” and the mutagenic call (End Point: In vivo micronucleus, Test System: Bone marrow cells, Species: Mouse, Strain/Sex: CD1/Male, Route: Intraperitoneal) was “active; positive (highest dose only)”. For the same compound, the mutagenic call (Test System: AMES SALMONELLA TYPHIMURIUM, Strain/Indicator: TA97, Metabolic Activation: NONE, Method: PREINCUBATION) was “inactive; negative”, the mutagenic call (Test System: AMES SALMONELLA TYPHIMURIUM, Strain/Indicator: TA97, Metabolic Activation: RAT, LIVER, S-9, AROCLOR 1254, Method: PREINCUBATION) was “inactive; negative” and the mutagenic call (Test System: AMES SALMONELLA TYPHIMURIUM, Strain/Indicator: TA98, Metabolic Activation: NONE, Method: FLUCTUATION (MICROTITER)) was “inactive; negative”. The mutagenic call (Test System: AMES SALMONELLA TYPHIMURIUM, Strain/Indicator: TA98, Metabolic Activation: NONE, Method: PREINCUBATION) was “inactive; negative”, the mutagenic call (Test System: AMES SALMONELLA TYPHIMURIUM, Strain/Indicator: TA98, Metabolic Activation: RAT LIVER S-9, AROCLOR 1254, Method: FLUCTUATION (MICROTITER)) was “inactive; negative” and the mutagenic call (Test System: AMES SALMONELLA TYPHIMURIUM, Strain/Indicator: TA98, Metabolic Activation: RAT LIVER S-9, PHENOBARBITAL AND BETA-NAPHTHOFLAVONE, Method: PREINCUBATION) was “inactive; negative”. The mutagenic call (Test System: AMES SALMONELLA TYPHIMURIUM, Strain/Indicator: TA98, Metabolic Activation: RAT, LIVER, S-9, AROCLOR 1254, Method: PREINCUBATION) was “inactive; negative”, the mutagenic call (Test System: AMES SALMONELLA TYPHIMURIUM, Strain/Indicator: TA98, Metabolic Activation: RAT, LIVER, S-9, AROCLOR 1254, Method: STANDARD PLATE) was “inactive; negative” and the mutagenic call (Test System: AMES SALMONELLA TYPHIMURIUM, Strain/Indicator: TA100, Metabolic Activation: NONE, Method: FLUCTUATION TEST) was “inactive; negative”. The mutagenic call (Test System: AMES SALMONELLA TYPHIMURIUM, Strain/Indicator: TA100, Metabolic Activation: NONE, Method: PREINCUBATION) was “inactive; negative”, the mutagenic call (Test System: AMES SALMONELLA TYPHIMURIUM, Strain/Indicator: TA100, Metabolic Activation: RAT LIVER S-9, PHENOBARBITAL AND BETA-NAPHTHOFLAVONE, Method: PREINCUBATION) was “inactive; negative” and the mutagenic call (Test System: AMES SALMONELLA TYPHIMURIUM, Strain/Indicator: TA100, Metabolic Activation: RAT, LIVER, S-9, AROCLOR 1254, Method: PREINCUBATION) was “inactive; negative”. For the same compound, the mutagenic call (Test System: AMES SALMONELLA TYPHIMURIUM, Strain/Indicator: TA100, Metabolic Activation: RAT, LIVER, S-9, PCB, Method: FLUCTUATION TEST) was “active; positive”, the mutagenic call (Test System: AMES SALMONELLA TYPHIMURIUM, Strain/Indicator: TA102, Metabolic Activation: NONE, Method: PREINCUBATION) was “inactive; negative” and the mutagenic call (Test System: AMES SALMONELLA TYPHIMURIUM, Strain/Indicator: TA102, Metabolic Activation: RAT, LIVER, S-9, AROCLOR 1254, Method: PREINCUBATION) was “inactive; negative”. The mutagenic call (Test System: AMES SALMONELLA TYPHIMURIUM, Strain/Indicator: TA104, Metabolic Activation: NONE, Method: PREINCUBATION) was “inactive; negative”, the mutagenic call (Test System: AMES SALMONELLA TYPHIMURIUM, Strain/Indicator: TA104, Metabolic Activation: RAT, LIVER, S-9, AROCLOR 1254, Method: PREINCUBATION) was “inactive; negative” and the mutagenic call (Test System: AMES SALMONELLA TYPHIMURIUM, Strain/Indicator: TA1535, Metabolic Activation: NONE, Method: PREINCUBATION) was “inactive; negative”. For the same compound, the mutagenic call (Test System: AMES SALMONELLA TYPHIMURIUM, Strain/Indicator: TA1535, Metabolic Activation: RAT LIVER S-9, PHENOBARBITAL AND BETA-NAPHTHOFLAVONE, Method: PREINCUBATION) was “inactive; negative”, the mutagenic call (Test System: AMES SALMONELLA TYPHIMURIUM, Strain/Indicator: TA1535, Metabolic Activation: RAT, LIVER, S-9, AROCLOR 1254, Method: PREINCUBATION) was “inactive; negative” and the mutagenic call (Test System: AMES SALMONELLA TYPHIMURIUM, Strain/Indicator: TA1535, Metabolic Activation: RAT, LIVER, S-9, AROCLOR 1254, Method: STANDARD PLATE) was “inactive; negative”. The mutagenic call (Test System: AMES SALMONELLA TYPHIMURIUM, Strain/Indicator: TA1537, Metabolic Activation: NONE, Method: FLUCTUATION (MICROTITER)) was “inactive; negative”, the mutagenic call (Test System: AMES SALMONELLA TYPHIMURIUM, Strain/Indicator: TA1537, Metabolic Activation: NONE, Method: PREINCUBATION) was “inactive; negative” and the mutagenic call (Test System: AMES SALMONELLA TYPHIMURIUM, Strain/Indicator: TA1537, Metabolic Activation: RAT LIVER S-9, AROCLOR 1254, Method: FLUCTUATION (MICROTITER)) was “inactive; negative”. For the same compound, the mutagenic call (Test System: AMES SALMONELLA TYPHIMURIUM, Strain/Indicator: TA1537, Metabolic Activation: RAT LIVER S-9, PHENOBARBITAL AND BETA-NAPHTHOFLAVONE, Method: PREINCUBATION) was “inactive; negative”, the mutagenic call (Test System: AMES SALMONELLA TYPHIMURIUM, Strain/Indicator: TA7001, Metabolic Activation: NONE, Method: FLUCTUATION (MICROTITER)) was “inactive; negative” and the mutagenic call (Test System: AMES SALMONELLA TYPHIMURIUM, Strain/Indicator: TA7001, Metabolic Activation: RAT LIVER S-9, AROCLOR 1254, Method: FLUCTUATION (MICROTITER)) was “inactive; negative”. For the same compound, the mutagenic call (Test System: AMES SALMONELLA TYPHIMURIUM, Strain/Indicator: TA7002, Metabolic Activation: NONE, Method: FLUCTUATION (MICROTITER)) was “inactive; negative”, the mutagenic call (Test System: AMES SALMONELLA TYPHIMURIUM, Strain/Indicator: TA7002, Metabolic Activation: RAT LIVER S-9, AROCLOR 1254, Method: FLUCTUATION (MICROTITER)) was “inactive; negative” and the mutagenic call (Test System: AMES SALMONELLA TYPHIMURIUM, Strain/Indicator: TA7003, Metabolic Activation: NONE, Method: FLUCTUATION (MICROTITER)) was “inactive; negative”. The mutagenic call (Test System: AMES SALMONELLA TYPHIMURIUM, Strain/Indicator: TA7003, Metabolic Activation: RAT LIVER S-9, AROCLOR 1254, Method: FLUCTUATION (MICROTITER)) was “inactive; negative”, the mutagenic call (Test System: AMES SALMONELLA TYPHIMURIUM, Strain/Indicator: TA7004, Metabolic Activation: NONE, Method: FLUCTUATION (MICROTITER)) was “inactive; negative” and the mutagenic call (Test System: AMES SALMONELLA TYPHIMURIUM, Strain/Indicator: TA7004, Metabolic Activation: RAT LIVER S-9, AROCLOR 1254, Method: FLUCTUATION (MICROTITER)) was “inactive; negative”. The mutagenic call (Test System: AMES SALMONELLA TYPHIMURIUM, Strain/Indicator: TA7005, Metabolic Activation: NONE, Method: FLUCTUATION (MICROTITER)) was “inactive; negative”, the mutagenic call (Test System: AMES SALMONELLA TYPHIMURIUM, Strain/Indicator: TA7005, Metabolic Activation: RAT LIVER S-9, AROCLOR 1254, Method: FLUCTUATION (MICROTITER)) was “inactive; negative” and the mutagenic call (Test System: AMES SALMONELLA TYPHIMURIUM, Strain/Indicator: TA7006, Metabolic Activation: NONE, Method: FLUCTUATION (MICROTITER)) was “inactive; negative”. For the same compound, the mutagenic call (Test System: AMES SALMONELLA TYPHIMURIUM, Strain/Indicator: TA7006, Metabolic Activation: RAT LIVER S-9, AROCLOR 1254, Method: FLUCTUATION (MICROTITER)) was “inactive; negative”, the mutagenic call (Test System: CHINESE HAMSTER V-79, Strain/Indicator: V-79/6-THIOGUANINE, Metabolic Activation: NONE) was “inactive; negative” and the mutagenic call (Test System: E.COLI, Strain/Indicator: WP2UVRA, Metabolic Activation: NONE, Method: PREINCUBATION) was “inactive; negative”. For the same compound, the mutagenic call (Test System: E.COLI, Strain/Indicator: WP2UVRA, Metabolic Activation: RAT LIVER S-9, PHENOBARBITAL AND BETA-NAPHTHOFLAVONE, Method: PREINCUBATION) was “inactive; negative”, the mutagenic call (Test System: MOUSE LYMPHOMA, Strain/Indicator: L5178Y (TK+/TK-), Metabolic Activation: NONE, Method: SUSPENSION/PLATE) was “active; positive” and the mutagenic call (Test System: MOUSE LYMPHOMA, Strain/Indicator: L5178Y (TK+/TK-), Metabolic Activation: RAT, LIVER, S-9, AROCLOR 1254, Method: SUSPENSION/PLATE) was “active; positive”. The mutagenic call (Test System: UDS SHE CELLS, Strain/Indicator: THY INCORP, Metabolic Activation: NONE, Method: LIQUID SCINTILLATION COUNTING) was “active; positive”.
